± gives the expanded uncertainty stated by the source.
Test: xn = mol fraction of the nth substance listed
Conditions: Fluid (supercritical or subcritical phases), vibrating tube

With `CCCCCO` [pentan-1-ol] + O=C=O the mass density (342.95 K, 17053 kPa, x2 = 0.6054) was 811.1 ± 0.45 kg/m3, the mass density (342.95 K, 18061 kPa, x2 = 0.6054) was 813.31 ± 0.45 kg/m3 and the mass density (342.95 K, 19049 kPa, x2 = 0.6054) was 815.42 ± 0.45 kg/m3. It also gave a mass density (342.95 K, 20084 kPa, x2 = 0.6054) of 817.54 ± 0.45 kg/m3, a mass density (342.95 K, 21075 kPa, x2 = 0.6054) of 819.56 ± 0.45 kg/m3 and a mass density (342.95 K, 22070 kPa, x2 = 0.6054) of 821.54 ± 0.45 kg/m3. For the same molecule, the mass density (342.95 K, 23069 kPa, x2 = 0.6054) was 823.48 ± 0.45 kg/m3, the mass density (342.95 K, 24068 kPa, x2 = 0.6054) was 825.37 ± 0.45 kg/m3 and the mass density (342.95 K, 25106 kPa, x2 = 0.6054) was 827.29 ± 0.46 kg/m3. The mass density (342.96 K, 7006 kPa, x2 = 0.1347) was 785.93 ± 0.44 kg/m3, the mass density (342.96 K, 8027 kPa, x2 = 0.1347) was 786.83 ± 0.44 kg/m3 and the mass density (342.96 K, 9036 kPa, x2 = 0.1347) was 787.79 ± 0.44 kg/m3. For the same molecule, the mass density (342.96 K, 10053 kPa, x2 = 0.1347) was 788.74 ± 0.44 kg/m3, the mass density (342.96 K, 11003 kPa, x2 = 0.1347) was 789.61 ± 0.44 kg/m3 and the mass density (342.96 K, 12025 kPa, x2 = 0.1347) was 790.55 ± 0.44 kg/m3. For the same molecule, the mass density (342.96 K, 13042 kPa, x2 = 0.1347) was 791.48 ± 0.44 kg/m3, the mass density (342.96 K, 14006 kPa, x2 = 0.1347) was 792.33 ± 0.44 kg/m3 and the mass density (342.96 K, 15009 kPa, x2 = 0.1347) was 793.22 ± 0.44 kg/m3. The mass density (342.96 K, 16036 kPa, x2 = 0.1347) was 794.12 ± 0.44 kg/m3, the mass density (342.96 K, 17009 kPa, x2 = 0.1347) was 794.98 ± 0.44 kg/m3 and the mass density (342.96 K, 18011 kPa, x2 = 0.1347) was 795.84 ± 0.45 kg/m3. It also gave a mass density (342.96 K, 19019 kPa, x2 = 0.1347) of 796.7 ± 0.45 kg/m3, a mass density (342.96 K, 20016 kPa, x2 = 0.1347) of 797.55 ± 0.45 kg/m3 and a mass density (342.96 K, 20998 kPa, x2 = 0.1347) of 798.37 ± 0.45 kg/m3. For the same molecule, the mass density (342.96 K, 22010 kPa, x2 = 0.1347) was 799.2 ± 0.45 kg/m3, the mass density (342.96 K, 23002 kPa, x2 = 0.1347) was 800.03 ± 0.45 kg/m3 and the mass density (342.96 K, 24085 kPa, x2 = 0.1347) was 800.92 ± 0.45 kg/m3. It also gave a mass density (342.96 K, 25038 kPa, x2 = 0.1347) of 801.69 ± 0.45 kg/m3, a mass density (352.71 K, 508 kPa, x2 = 0) of 768.15 ± 0.43 kg/m3 and a mass density (352.71 K, 1011 kPa, x2 = 0) of 768.66 ± 0.43 kg/m3. It also gave a mass density (352.71 K, 1995 kPa, x2 = 0) of 769.61 ± 0.43 kg/m3, a mass density (352.71 K, 3014 kPa, x2 = 0) of 770.57 ± 0.43 kg/m3 and a mass density (352.71 K, 3998 kPa, x2 = 0) of 771.49 ± 0.43 kg/m3. It also gave a mass density (352.71 K, 5022 kPa, x2 = 0) of 772.45 ± 0.43 kg/m3, a mass density (352.71 K, 6012 kPa, x2 = 0) of 773.35 ± 0.44 kg/m3 and a mass density (352.71 K, 7006 kPa, x2 = 0) of 774.26 ± 0.44 kg/m3. It also gave a mass density (352.71 K, 8024 kPa, x2 = 0) of 775.17 ± 0.44 kg/m3, a mass density (352.71 K, 9005 kPa, x2 = 0) of 776.05 ± 0.44 kg/m3 and a mass density (352.71 K, 10016 kPa, x2 = 0) of 776.94 ± 0.44 kg/m3. The mass density (352.71 K, 11026 kPa, x2 = 0) was 777.81 ± 0.44 kg/m3, the mass density (352.71 K, 12001 kPa, x2 = 0) was 778.65 ± 0.44 kg/m3 and the mass density (352.71 K, 13002 kPa, x2 = 0) was 779.5 ± 0.44 kg/m3. It also gave a mass density (352.71 K, 14026 kPa, x2 = 0) of 780.35 ± 0.44 kg/m3, a mass density (352.71 K, 15000 kPa, x2 = 0) of 781.18 ± 0.44 kg/m3 and a mass density (352.71 K, 16005 kPa, x2 = 0) of 781.98 ± 0.44 kg/m3. The mass density (352.71 K, 17023 kPa, x2 = 0) was 782.81 ± 0.44 kg/m3, the mass density (352.71 K, 18003 kPa, x2 = 0) was 783.59 ± 0.44 kg/m3 and the mass density (352.71 K, 19049 kPa, x2 = 0) was 784.43 ± 0.45 kg/m3. It also gave a mass density (352.71 K, 20035 kPa, x2 = 0) of 785.2 ± 0.45 kg/m3, a mass density (352.71 K, 21002 kPa, x2 = 0) of 785.96 ± 0.45 kg/m3 and a mass density (352.71 K, 21995 kPa, x2 = 0) of 786.73 ± 0.45 kg/m3. It also gave a mass density (352.71 K, 23020 kPa, x2 = 0) of 787.52 ± 0.45 kg/m3, a mass density (352.71 K, 24045 kPa, x2 = 0) of 788.32 ± 0.45 kg/m3 and a mass density (352.71 K, 25009 kPa, x2 = 0) of 789.05 ± 0.45 kg/m3. The mass density (352.73 K, 17393 kPa, x2 = 0.9757) was 574.15 ± 0.83 kg/m3, the mass density (352.73 K, 18036 kPa, x2 = 0.9757) was 591.88 ± 0.79 kg/m3 and the mass density (352.73 K, 19032 kPa, x2 = 0.9757) was 616.27 ± 0.74 kg/m3. For the same molecule, the mass density (352.73 K, 20013 kPa, x2 = 0.9757) was 637.17 ± 0.69 kg/m3, the mass density (352.73 K, 21057 kPa, x2 = 0.9757) was 656.66 ± 0.66 kg/m3 and the mass density (352.73 K, 22011 kPa, x2 = 0.9757) was 672.48 ± 0.63 kg/m3. The mass density (352.73 K, 23064 kPa, x2 = 0.9757) was 688.28 ± 0.61 kg/m3 and the mass density (352.73 K, 24053 kPa, x2 = 0.9757) was 701.67 ± 0.58 kg/m3.

Reference: the NIST ThermoML archive (doi:10.1016/j.jct.2007.07.005)
